Data on one compound can be found in ChEMBL document CHEMBL4665715, “Thienochromene derivatives inhibit pSTAT1 and pSTAT5 signaling induced by cytokines” (Bioorg Med Chem Lett, 2020).

The IC50 is the midpoint of a concentration-inhibition curve.

Assay type in all cases: tissue-based
Assay [1] has as its target T1, Janus Kinase (JAK) (Homo sapiens, UniProt P52333+P23458+O60674+P29597). The experiment in a line: Inhibition of JAK in human PBMC assessed as inhibition of GM-CSF-induced STAT5 phosphorylation preincubated for 30 mins followed by addition […] stimulation and measured after 30 mins by ELISA. For orientation: An ELISA detects its analyte on a solid surface through an enzyme-linked reagent.

Assay [2] concerns the target T1, Janus Kinase (JAK). The experiment in a line: Inhibition of JAK in human PBMC assessed as inhibition of IFNalpha-induced STAT1 phosphorylation preincubated for 30 mins followed by addition […] stimulation and measured after 30 mins by ELISA.
Assay [3] concerns the target T1, Janus Kinase (JAK). In words: Inhibition of JAK in human PBMC assessed as inhibition of IFNalpha-induced STAT1 phosphorylation at 150 uM preincubated for 30 mins followed by addition […] stimulation and measured after 30 mins by ELISA.
The target in assay [4] is T1, Janus Kinase (JAK). The experiment in a line: Inhibition of JAK in human PBMC assessed as inhibition of IL2-induced STAT5 phosphorylation preincubated for 30 mins followed by addition IL2 stimulation and measured after 30 mins by ELISA.
In assay [5] the target is T1, Janus Kinase (JAK). The experiment in a line: Inhibition of JAK in human PBMC assessed as inhibition of IL2-induced STAT5 phosphorylation at 150 uM preincubated for 30 mins followed by addition IL2 stimulation and measured after 30 mins by ELISA.
In assay [6] the target is T1, Janus Kinase (JAK). In words: Inhibition of JAK in human PBMC assessed as inhibition of GM-CSF-induced STAT5 phosphorylation at 150 uM preincubated for 30 mins followed by addition […] stimulation and measured after 30 mins by ELISA.

Structures are written as SMILES. The source made the active and inactive calls. The calls are words filed in the database; no cut-off is given here.

Regarding `CCOC(=O)c1cc2c(=O)oc3cc(O)ccc3c2s1`, the figures for the concentration for half-maximal inhibition (IC50) at Janus Kinase (JAK) [1], on Janus Kinase (JAK) [2] and at Janus Kinase (JAK) [4] were 5 µM, 11.9 µM and 12.1 µM, respectively. Moreover, the inhibition result at Janus Kinase (JAK) [3], at Janus Kinase (JAK) [5] and on Janus Kinase (JAK) [6] was “Active” throughout.
